# According to US10647713B2 (Nimbus Lakshmi, Inc., priority 2016, dated 2020):
# Target: human TYK2 (JH2domain-pseudokinase) (Homo sapiens (Human), UniProt P29597)
# Test: TYK2 JH2 Domain Binding Assay (KINOMEscan, DiscoveRx)
# Details: 11-point dilution, duplicate
# In short: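 TYK2 JH2 (G556–D888)–NFkB DBD fusion, DNA-tagged, from HEK293 extracts (<0.1 nM) competed against immobilised biotinylated ligand for 1 h at room temperature, 0.9% DMSO. Bead-retained kinase quantified by qPCR; Kd from 11-point 3-fold series (top 30,000 nM, duplicate), Hill fit with slope −1.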
# human TYK2 (JH2domain-pseudokinase), sequence (P29597 556-888): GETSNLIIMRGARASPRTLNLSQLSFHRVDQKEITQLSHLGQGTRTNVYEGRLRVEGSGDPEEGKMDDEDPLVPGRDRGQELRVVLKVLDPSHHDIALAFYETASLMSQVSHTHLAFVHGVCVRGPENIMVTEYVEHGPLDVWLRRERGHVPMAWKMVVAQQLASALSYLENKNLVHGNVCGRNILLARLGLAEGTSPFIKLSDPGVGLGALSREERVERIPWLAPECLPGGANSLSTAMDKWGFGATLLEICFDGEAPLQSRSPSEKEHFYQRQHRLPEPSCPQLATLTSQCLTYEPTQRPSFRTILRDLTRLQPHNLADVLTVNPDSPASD
row,SMILES,Kd
1,"Cn1cncc1-c1ccc(Nc2cc(NC(=O)C3CC3)nc3[nH]c(C(F)F)nc23)c(S(C)(=O)=O)c1 [I-214, N-(2-(difluoromethyl)-7-((4-(1-methyl-1H-imidazol-5-yl)-2-(methylsulfonyl)phenyl)amino)-3H-imidazo[4,5-b]pyridin-5-yl)cyclopropanecarboxamide]",< 0.1 nM
2,"Cc1nc2c(Nc3ccc(Cl)cc3N(C)S(C)(=O)=O)cc(Nc3cnc(C)c(C)n3)nc2[nH]1 [I-130, N-(5-chloro-2-((5-((5,6-dimethylpyrazin-2-yl)amino)-2-methyl-3H-imidazo[4,5-b]pyridin-7-yl)amino)phenyl)-N-methylmethanesulfonamide]",0.5 to 1 nM
3,"COc1c(Nc2cc(Nc3ccc(N4CCC4)cn3)nc3[nH]c(C(F)F)nc23)cccc1-c1nnn(C)n1 [I-22, N5-(5-(azetidin-1-yl)pyridin-2-yl)-2-(difluoromethyl)-N7-(2-methoxy-3-(2-methyl-2H-tetrazol-5-yl)phenyl)-3H-imidazo[4,5-b]pyridine-5,7-diamine]",1 to 10 nM
4,"Cc1ncc(Nc2cc(Nc3ccc(C4CCC(C)(C)CO4)cc3S(C)(=O)=O)c3nc(C(F)F)[nH]c3n2)nc1C (centres unmarked) [I-605, 2-(difluoromethyl)-N5-(5,6-dimethylpyrazin-2-yl)-N7-(4-(5,5-dimethyltetrahydro-2H-pyran-2-yl)-2-(methylsulfonyl)phenyl)-3H-imidazo[4,5-b]pyridine-5,7-diamine]",0.1 to 0.5 nM
5,"COc1c(Nc2cc(NC(=O)C3CC3)nc3[nH]c(C(F)F)nc23)cccc1-c1nn(C)nc1C [I-53, N-(2-(difluoromethyl)-7-((3-(2,5-dimethyl-2H-1,2,3-triazol-4-yl)-2-methoxyphenyl)amino)-3H-imidazo[4,5-b]pyridin-5-yl)cyclopropanecarboxamide]",> 10 nM
6,"Cn1ccc(-c2ccc(Nc3cc(NC(=O)[C@H]4CC4(F)F)nc4[nH]c(C(F)F)nc34)c(S(C)(=O)=O)c2)n1 [I-238, (R)—N-(2-(difluoromethyl)-7-((4-(1-methyl-1H-pyrazol-3-yl)-2-(methylsulfonyl)phenyl)amino)-3H-imidazo[4,5-b]pyridin-5-yl)-2,2-difluorocyclopropane-1-carboxamide]",1 to 10 nM
7,"COc1c(Nc2cc(NC(=O)C3CC3)nc3[nH]c(CO)nc23)cccc1-c1ncn(C)n1 [I-10, N-(2-(hydroxymethyl)-7-((2-methoxy-3-(1-methyl-1H-1,2,4-triazol-3-yl)phenyl)amino)-3H-imidazo[4,5-b]pyridin-5-yl)cyclopropanecarboxamide]",1 to 10 nM
8,"COc1c(Nc2cc(NC(=O)C3CC3)nc3[nH]c(C(F)F)nc23)cccc1-n1ncnc1C [I-55, N-(2-(difluoromethyl)-7-((2-methoxy-3-(5-methyl-1H-1,2,4-triazol-1-yl)phenyl)amino)-3H-imidazo[4,5-b]pyridin-5-yl)cyclopropanecarboxamide]",> 10 nM
9,"COc1c(Nc2cc(Nc3cc(C)cc(C#N)n3)nc3[nH]c(C(F)F)nc23)cccc1-c1nnn(C)n1 [I-32, 6-((2-(difluoromethyl)-7-((2-methoxy-3-(2-methyl-2H-tetrazol-5-yl)phenyl)amino)-3H-imidazo[4,5-b]pyridin-5-yl)amino)-4-methylpicolinonitrile]",0.5 to 1 nM
10,"Cc1ccc(Nc2cc(Nc3ccccc3N(C)S(C)(=O)=O)c3nc(C(F)F)[nH]c3n2)nn1 [I-43, N-(2-((2-(difluoromethyl)-5-((6-methylpyridazin-3-yl)amino)-3H-imidazo[4,5-b]pyridin-7-yl)amino)phenyl)-N-methylmethanesulfonamide]",0.1 to 0.5 nM
11,"COc1c(Nc2cc(Nc3ccc(N4CC(O)C4)cn3)nc3[nH]c(C(F)F)nc23)cccc1-c1nnn(C)n1 [I-23, I-(6-((2-(difluoromethyl)-7-((2-methoxy-3-(2-methyl-2H-tetrazol-5-yl)phenyl)amino)-3H-imidazo[4,5-b]pyridin-5-yl)amino)pyridin-3-yl)azetidin-3-ol]",1 to 10 nM
12,"COc1c(Nc2cc(Nc3ccc(NCCCCl)c(C#N)n3)nc3[nH]c(C(F)F)nc23)cccc1-c1nnn(C)n1 [I-46, 3-((3-chloropropyl)amino)-6-((2-(difluoromethyl)-7-((2-methoxy-3-(2-methyl-2H-tetrazol-5-yl)phenyl)amino)-3H-imidazo[4,5-b]pyridin-5-yl)amino)picolinonitrile]",0.5 to 1 nM
13,"Cc1nc2c(Nc3ccc([C@H]4CCCCO4)cc3S(C)(=O)=O)cc(NC(=O)[C@@H]3CC3(F)F)nc2[nH]1 [I-257, (S)-2,2-difluoro-N-(2-methyl-7-((2-(methylsulfonyl)-4-((R)-tetrahydro-2H-pyran-2-yl)phenyl)amino)-3H-imidazo[4,5-b]pyridin-5-yl)cyclopropane-1-carboxamide]",1 to 10 nM
14,"Cc1nc2c(Nc3ccc(-c4cc(C)n(C)n4)cc3N(C)S(C)(=O)=O)cc(NC(=O)C3CC3)nc2[nH]1 [I-193, N-(7-((4-(1,5-dimethyl-1H-pyrazol-3-yl)-2-(N-methylmethylsulfonamido)phenyl)amino)-2-methyl-3H-imidazo[4,5-b]pyridin-5-yl)cyclopropanecarboxamide]",> 10 nM

# More lines, now with the values ahead:
row,Kd,SMILES
1,0.1 to 0.5 nM,"Cc1nc2c(Nc3ccc([C@@H]4CCCO4)cc3S(C)(=O)=O)cc(NC(=O)[C@@H]3CC3(F)F)nc2[nH]1 [I-426, (S)-2,2-difluoro-N-(2-methyl-7-((2-(methylsulfonyl)-4-((S)-tetrahydrofuran-2-yl)phenyl)amino)-3H-imidazo[4,5-b]pyridin-5-yl)cyclopropane-1-carboxamide]"
2,0.1 to 0.5 nM,"Cc1cn(C)nc1-c1ccc(Nc2cc(Nc3cnc(C)c(C)n3)nc3[nH]c(C(F)F)nc23)c(S(C)(=O)=O)c1 [I-315, 2-(difluoromethyl)-N7-(4-(1,4-dimethyl-1H-pyrazol-3-yl)-2-(methylsulfonyl)phenyl)-N5-(5,6-dimethylpyrazin-2-yl)-3H-imidazo[4,5-b]pyridine-5,7-diamine]"
3,0.1 to 0.5 nM,"Cc1c(-c2ccc(Nc3cc(NC(=O)[C@@H]4CC4(F)F)nc4[nH]c(C(F)F)nc34)c(S(C)(=O)=O)c2)cnn1C [I-308, (S)—N-(2-(difluoromethyl)-7-((4-(1,5-dimethyl-1H-pyrazol-4-yl)-2-(methylsulfonyl)phenyl)amino)-3H-imidazo[4,5-b]pyridin-5-yl)-2,2-difluorocyclopropane-1-carboxamide]"
4,1 to 10 nM,"COc1c(Nc2cc(Nc3cccc(C(F)(F)F)n3)nc3[nH]c(C)nc23)cccc1-c1cnn(C)n1 [I-606, N7-(2-methoxy-3-(2-methyl-2H-1,2,3-triazol-4-yl)phenyl)-2-methyl-N5-(6-(trifluoromethyl)pyridin-2-yl)-3H-imidazo[4,5-b]pyridine-5,7-diamine]"
5,1 to 10 nM,"COc1c(Nc2cc(NC(=O)C3CC3)nc3[nH]c(C(F)F)nc23)cccc1-c1nc(C)cs1 [I-320, N-(2-(difluoromethyl)-7-((2-methoxy-3-(4-methylthiazol-2-yl)phenyl)amino)-3H-imidazo[4,5-b]pyridin-5-yl)cyclopropanecarboxamide]"
6,0.1 to 0.5 nM,"Cc1nc2c(Nc3ccc(C4CCCO4)cc3S(C)(=O)=O)cc(Nc3cccc(C#N)n3)nc2[nH]1 (centres unmarked) [I-544, 6-((2-methyl-7-((2-(methylsulfonyl)-4-(tetrahydrofuran-2-yl)phenyl)amino)-3H-imidazo[4,5-b]pyridin-5-yl)amino)picolinonitrile]"
7,< 0.1 nM,Cc1cc(-c2ccc(Nc3cc(Nc4cc5n(n4)CCOC5)nc4[nH]c(C(F)F)nc34)c(S(C)(=O)=O)c2)nn1C [I-526]
8,1 to 10 nM,"CS(=O)(=O)c1cc(C(F)(F)F)ccc1Nc1cc(NC(=O)C2CC2)nc2[nH]c(C(F)F)nc12 [I-258, N-(2-(difluoromethyl)-7-((2-(methylsulfonyl)-4-(trifluoromethyl)phenyl)amino)-3H-imidazo[4,5-b]pyridin-5-yl)cyclopropanecarboxamide]"
9,< 0.1 nM,"Cc1nc2c(Nc3ccc(C4CCCCO4)cc3S(C)(=O)=O)cc(NC(=O)C3CC3)nc2[nH]1 (centres unmarked) [I-387, N-(2-methyl-7-((2-(methylsulfonyl)-4-(tetrahydro-2H-pyran-2-yl)phenyl)amino)-3H-imidazo[4,5-b]pyridin-5-yl)cyclopropanecarboxamide]"
10,0.1 to 0.5 nM,"Cc1nc2c(Nc3ccccc3S(C)(=O)=O)cc(Nc3cccc(C#N)n3)nc2[nH]1 [I-603, 6-((2-methyl-7-((2-(methylsulfonyl)phenyl)amino)-3H-imidazo[4,5-b]pyridin-5-yl)amino)picolinonitrile]"
11,0.1 to 0.5 nM,"Cc1nc2c(Nc3ccc(-c4cncn4C)cc3N(C)S(C)(=O)=O)cc(NC(=O)[C@@H]3CC3(F)F)nc2[nH]1 [I-274, (S)-2,2-difluoro-N-(2-methyl-7-((4-(1-methyl-1H-imidazol-5-yl)-2-(N-methylmethylsulfonamido)phenyl)amino)-3H-imidazo[4,5-b]pyridin-5-yl)cyclopropane-1-carboxamide]"
12,0.1 to 0.5 nM,"CN(c1cc(-c2cncn2C)ccc1Nc1cc(NC(=O)[C@H]2C[C@@H]2F)nc2[nH]c(C(F)F)nc12)S(C)(=O)=O [I-370, (1R,2S)—N-(2-(difluoromethyl)-7-((4-(1-methyl-1H-imidazol-5-yl)-2-(N-methylmethylsulfonamido)phenyl)amino)-3H-imidazo[4,5-b]pyridin-5-yl)-2-fluorocyclopropane-1-carboxamide]"
13,0.1 to 0.5 nM,Cc1nc2c(Nc3ccc(-c4c(C)nn(C)c4C)cc3S(C)(=O)=O)cc(Nc3cnc(C)c(C)n3)nc2[nH]1 [I-342]
14,1 to 10 nM,"CS(=O)(=O)c1cc([C@@H]2CCCOC2)ccc1Nc1cc(NC(=O)[C@H]2CC2(F)F)nc2[nH]c(C(F)F)nc12 [I-439, (R)—N-(2-(difluoromethyl)-7-((2-(methylsulfonyl)-4-((S)-tetrahydro-2H-pyran-3-yl)phenyl)amino)-3H-imidazo[4,5-b]pyridin-5-yl)-2,2-difluorocyclopropane-1-carboxamide]"
15,1 to 10 nM,"CC1(C)CSC(c2ccc(Nc3cc(NC(=O)[C@H]4CC4(F)F)nc4[nH]c(C(F)F)nc34)c(S(C)(=O)=O)c2)=N1 [I-482, (R)—N-(2-(difluoromethyl)-7-((4-(4,4-dimethyl-4,5-dihydrothiazol-2-yl)-2-(methylsulfonyl)phenyl)amino)-3H-imidazo[4,5-b]pyridin-5-yl)-2,2-difluorocyclopropane-1-carboxamide]"
